Test results from US9732060B2, “Aminotriazine derivative and pharmaceutical composition comprising the same” (Shionogi & Co., Ltd., priority 2013, dated 2017).
Blank lines part the entries; values can stand above or below the compound they belong to.

Tests used:
CYP1A2 = CYP1A2 (Homo sapiens (Human), UniProt P05177); assay: CYP inhibition test, CYP1A2; format: in vitro ADME; settings: pooled human hepatic microsome; 7-ethoxyresorufin-O-deethylation
Description: (§1) Using commercially available pooled human hepatic microsome, and employing, as markers, 7-ethoxyresorufin-O-deethylation (CYP1A2), tolbutamide methyl-hydroxylation (CYP2C9), mephenytoin 4′-hydroxylation (CYP2C19), dextromethorphan O-demethylation (CYP2D6), and terfenedine hydroxylation as typical substrate metabolism reactions of human main five CYP enzyme forms (CYP1A2, 2C9, 2C19, 2D6, 3A4), an inhibitory degree of each metabolite production amount by a test compound was assessed.
(§2) The reaction conditions were as follows: substrate, 0.5 μmol/L ethoxyresorufin (CYP1A2), 100 μmol/L tolbutamide (CYP2C9), 50 μmol/L S-mephenitoin (CYP2C19), 5 μmol/L dextromethorphan (CYP2D6), 1 μmol/L terfenedine (CYP3A4); reaction time, 15 minutes; reaction temperature, 37° C. enzyme, pooled human hepatic microsome 0.2 mg protein/mL; test, drug concentration, 1.0, 5.0, 10, 20 μmol/L (four points).
(§3) Each five kinds of substrates, human hepatic microsome, or a test drug in 50 mmol/L Hepes buffer as a reaction solution was added to a […] at the composition as described above, NADPH, as a cofactor was added to initiate metabolism reactions as markers and, after the incubation at 37° C. for 15 minutes, a methanol/acetonitrile=1/1 (v/v) solution was added to stop the reaction. After the centrifugation at 3000 rpm for 15 minutes, resorufin (CYP1A2 metabolite) in the supernatant was quantified by a fluorescent multilabel counter and tributamide hydroxide (CYP2CP metabolite), mephenytoin 4′hydroxide (CYP2C19 metabolite), […] (CYP2D6 metabolite), and terfenadine alcohol (CYP3A4 metabolite) were quantified by LC/MS/MS.
(§4) Addition of only DMSO being a solvent dissolving a drug to a reaction system was adopted as a control (100%), remaining activity (%) was calculated at each concentration of a test drug added as the solution and IC50 was calculated by reverse presumption by a logistic model using a concentration and an inhibition rate.

CYP2C9 = CYP2C9 (Homo sapiens (Human), UniProt P11712); assay: CYP inhibition test, CYP2C9; format: in vitro ADME; settings: pooled human hepatic microsome; tolbutamide methyl-hydroxylation
CYP2C9, sequence (P11712 whole entry): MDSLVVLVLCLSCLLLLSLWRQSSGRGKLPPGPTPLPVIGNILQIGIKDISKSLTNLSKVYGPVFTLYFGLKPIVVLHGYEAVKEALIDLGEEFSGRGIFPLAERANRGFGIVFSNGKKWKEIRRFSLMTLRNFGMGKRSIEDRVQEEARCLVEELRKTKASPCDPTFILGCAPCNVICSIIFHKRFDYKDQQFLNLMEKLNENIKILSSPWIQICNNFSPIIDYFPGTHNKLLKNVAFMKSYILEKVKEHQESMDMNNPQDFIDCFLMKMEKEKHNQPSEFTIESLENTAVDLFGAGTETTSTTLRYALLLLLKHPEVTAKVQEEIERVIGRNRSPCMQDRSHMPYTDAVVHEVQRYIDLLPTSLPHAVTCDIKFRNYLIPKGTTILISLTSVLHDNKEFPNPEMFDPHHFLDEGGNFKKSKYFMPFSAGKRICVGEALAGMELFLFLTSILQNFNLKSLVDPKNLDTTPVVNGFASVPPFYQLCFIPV
Description: as §1, §2, §3, §4

CYP2C19 = CYP2C19 (Homo sapiens (Human), UniProt P33261); assay: CYP inhibition test, CYP2C19; format: in vitro ADME; settings: pooled human hepatic microsome; mephenytoin 4′-hydroxylation
CYP2C19, sequence (P33261 whole entry): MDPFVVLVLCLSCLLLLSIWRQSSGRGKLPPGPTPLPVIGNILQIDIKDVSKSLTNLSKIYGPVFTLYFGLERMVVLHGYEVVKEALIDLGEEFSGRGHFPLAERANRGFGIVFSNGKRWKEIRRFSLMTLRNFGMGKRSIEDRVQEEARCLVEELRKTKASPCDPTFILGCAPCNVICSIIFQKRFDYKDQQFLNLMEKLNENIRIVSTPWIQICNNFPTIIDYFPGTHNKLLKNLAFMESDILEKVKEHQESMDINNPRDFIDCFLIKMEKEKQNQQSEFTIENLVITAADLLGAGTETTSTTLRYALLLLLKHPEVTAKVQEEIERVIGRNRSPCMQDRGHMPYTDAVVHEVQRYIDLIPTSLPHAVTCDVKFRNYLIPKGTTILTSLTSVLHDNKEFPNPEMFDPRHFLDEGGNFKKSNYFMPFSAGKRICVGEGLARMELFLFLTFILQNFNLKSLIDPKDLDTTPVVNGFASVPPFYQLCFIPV
Description: as §1, §2, §3, §4

CYP2D6 = CYP2D6 (Homo sapiens (Human), UniProt P10635); assay: CYP inhibition test, CYP2D6; format: in vitro ADME; settings: pooled human hepatic microsome; dextromethorphan O-demethylation
CYP2D6, sequence (P10635 whole entry): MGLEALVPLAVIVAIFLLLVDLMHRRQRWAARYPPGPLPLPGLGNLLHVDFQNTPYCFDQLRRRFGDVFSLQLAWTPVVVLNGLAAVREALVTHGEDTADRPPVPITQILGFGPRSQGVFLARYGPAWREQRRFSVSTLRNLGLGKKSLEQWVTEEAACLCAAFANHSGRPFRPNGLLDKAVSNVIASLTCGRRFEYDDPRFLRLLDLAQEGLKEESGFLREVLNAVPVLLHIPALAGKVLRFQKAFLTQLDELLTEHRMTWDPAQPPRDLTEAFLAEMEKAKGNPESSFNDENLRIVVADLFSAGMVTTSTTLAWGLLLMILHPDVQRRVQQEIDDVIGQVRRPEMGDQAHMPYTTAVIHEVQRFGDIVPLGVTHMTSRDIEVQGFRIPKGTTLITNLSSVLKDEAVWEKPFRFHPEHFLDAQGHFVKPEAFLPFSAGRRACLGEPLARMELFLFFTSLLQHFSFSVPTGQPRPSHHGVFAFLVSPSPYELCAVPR
Description: as §1, §2, §3, §4

CYP3A4 = CYP3A4 (Homo sapiens (Human), UniProt P08684); assay: CYP inhibition test, CYP3A4; format: in vitro ADME; settings: pooled human hepatic microsome; terfenedine hydroxylation
CYP3A4, sequence (P08684 whole entry): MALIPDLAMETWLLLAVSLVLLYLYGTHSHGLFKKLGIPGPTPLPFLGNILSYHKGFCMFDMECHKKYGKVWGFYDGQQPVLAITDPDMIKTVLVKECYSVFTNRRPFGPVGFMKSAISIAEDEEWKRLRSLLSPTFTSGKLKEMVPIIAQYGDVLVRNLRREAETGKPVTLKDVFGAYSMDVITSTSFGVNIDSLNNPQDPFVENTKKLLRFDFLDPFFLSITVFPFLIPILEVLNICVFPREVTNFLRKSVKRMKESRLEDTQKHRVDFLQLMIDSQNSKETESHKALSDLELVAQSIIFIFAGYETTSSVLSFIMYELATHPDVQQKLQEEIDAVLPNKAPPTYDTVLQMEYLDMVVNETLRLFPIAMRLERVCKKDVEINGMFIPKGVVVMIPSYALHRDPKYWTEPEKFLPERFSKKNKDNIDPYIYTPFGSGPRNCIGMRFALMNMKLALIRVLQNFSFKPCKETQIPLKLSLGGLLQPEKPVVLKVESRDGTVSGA
Description: as §1, §2, §3, §4

[1] = Solubility test (1% DMSO, artificial intestinal juice pH 6.8); format: physicochemical; settings: artificial intestinal juice pH 6.8 with 1% DMSO, 25 °C, fassgf or other biorelevant, kinetic from dmso stock, artificial intestinal juice pH 6.8, 25 degrees Celsius, read-out: Solubulity
Description: The solubility of a compound was determined under a condition in which 1% DMSO was added. 10 mmol/L compound solution was prepared using DMSO, and then 2 μL of the compound solution was added to 198 μL of artificial intestinal juice in pH 6.8 (to 250 mL of 0.2 mol/L potassium dihydrogen phosphate reagent solution was added 118 mL of 0.2 mol/L NaOH reagent solution and water to provide a final volume of 1000 mL). After standing at 25 degrees Celsius for 18 hours, the mixed solution was filtrated with suction. The filtrate was diluted twice with methanol/water (1/1), and then a concentration in the filtration was measured with HPLC or LC/MS/MS by the absolute calibration method.

[2] = Metabolism stability test, pooled human hepatic microsomes; format: in vitro ADME; settings: remaining rate, human liver microsomes, 30 minutes, compound concentration 0.5 μmol/L
Description: Using commercially available pooled human hepatic microsomes, a test compound is reacted for a constant time, a remaining rate is calculated by comparing a reacted sample and an unreacted sample, thereby, a degree of metabolism in liver is assessed.
A reaction was performed (oxidative reaction) at 37° C. for 0 minute or 30 minutes in the presence of 1 mmol/L NADPH in 0.2 mL of a buffer (50 mmol/L tris-HCl pH 7.4, 150 mmol/L potassium chloride, 10 mmol/L magnesium chloride) containing 0.5 mg protein/mL of human liver microsomes. After the reaction, 50 μL of the reaction solution was added to 100 μL of a methanol/acetonitrile=1/1 (v/v) mixed and centrifuged at 3000 rpm for 15 minutes. The test compound in the supernatant was quantified by LC/MS/MS, and a remaining amount of the test compound after the reaction was calculated, letting a compound amount at 0 minute reaction time to be 100%.
The remaining rate at the compound concentration 0.5 μmol/L are shown below.

human P2X3 receptor [3] = target: T1, human P2X3 receptor (Homo sapiens (Human), UniProt P56373); assay: Evaluation of human P2X3 receptor inhibitory activity in the presence of human serum albumin (HSA); format: cell-based; settings: in the presence of 1% HSA (final concentration)
T1 sequence (P56373 whole entry): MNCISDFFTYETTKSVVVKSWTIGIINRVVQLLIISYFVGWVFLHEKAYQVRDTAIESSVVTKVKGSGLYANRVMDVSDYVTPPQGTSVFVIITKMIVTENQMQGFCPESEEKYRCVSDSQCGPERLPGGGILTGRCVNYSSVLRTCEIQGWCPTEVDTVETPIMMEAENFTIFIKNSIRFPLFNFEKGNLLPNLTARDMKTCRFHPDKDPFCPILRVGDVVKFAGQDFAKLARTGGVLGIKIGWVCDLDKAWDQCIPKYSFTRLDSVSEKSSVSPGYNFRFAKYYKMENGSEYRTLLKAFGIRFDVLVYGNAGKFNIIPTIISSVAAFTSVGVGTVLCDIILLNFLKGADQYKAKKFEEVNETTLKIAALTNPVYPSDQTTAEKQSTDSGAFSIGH
Description: Stably expressing cell line (C6BU-1 cell transfected with human P2X3 receptor gene (GenBank accession number Y07683; was used. The cells were seeded in a 96-well microtiter plate at a concentration of 8000 cells/well and cultured in the medium (7.0% fetal bovine serum, 7.0% horse serum, 1% antibiotic and antifungal, and 2.0% glutamine in DMEM) for one day at 37° C. under 5% carbon dioxide atmosphere. The medium was replaced with 4 μM Fluo-3-AM solution (20 mM HEPES, 137 mM NaCl, 5.37 mM KCl, 0.9 mM MgCl2, 1.26 mM CaCl2, 5.6 mM D-glucose, 2.5 mM probenecid, 0.5% BSA, and 0.04% Pluronic F-127, pH 7.5) and incubated at 37° C. under 5% dioxide carbon atmosphere for one hour. The plate was washed with washing buffer (20 mM HEPES, 137 mM NaCl, 5.27 mM KCl, 0.9 mM MgCl2, 1.26 mM CaCl2, 5.6 mM D-glucose, 2.5 mM probenecid, pH 7.5), and each well was added with 40 μL of this buffer. The plate was placed in High-Throughput Screening System FDSS 3000 (Hamamatsu Photonics K.K.). Measurement of fluorescence intensity by FDSS 3000 was started, and 40 μL of DMSO solutions containing 1% HSA (final concentrations) different concentrations of the test compound as prepared by dilution with dilution buffer (20 mM HEPES, 137 mM NaCl, 5.27 mM KCl, 0.9 mM MgCl2, 1.26 mM CaCl2, 5.6 mM D-glucose, 2.5 mM probenecid, 0.1% Pluronic F-127, pH 7.5) were dispensed to each well through the built-in automatic dispenser. Five minutes after, 50 nM ATP solution (50 μL) prepared by dilution with the dilution buffer was dispensed through the built-in automatic dispenser, and the measurement of fluorescence intensity was continued for 4 min. For each well, the specific maximum fluorescence intensity was calculated as the ratio of the maximum fluorescence intensity after addition of the ATP solution to the fluorescence intensity at the starting of the measurement. […] FDSS software (Hamamatsu Photonics K.K.) was used for calculation of the specific maximum fluorescence intensity. IC50 was calculated using Microsoft Excel (Microsoft Corporation) and XLfit (idbs Ltd.)

human P2X3 receptor [4] = target: T1, human P2X3 receptor; assay: Evaluation of human P2X3 receptor inhibitory activity (FLIPR Ca fluorescence, ATP-evoked); format: cell-based; settings: C6BU-1 cells stably expressing human P2X3 receptor
Description: Stably expressing cell line (C6BU-1 cell transfected with human P2X3 receptor gene (GenBank accession number Y07683) was used. The cells were seeded in a 384-well PDL-coated microtiter plate at a concentration of 3000 cells/well and cultured in the medium (8.3% fetal bovine serum, 8.3% horse serum, and 1% antibiotic and antifungal in DMEM) for one day at 37° C. under 5% carbon dioxide atmosphere. The medium was replaced with 4 μM Fluo-3-AM solution (20 mM HEPES, 137 mM NaCl, 2.7 mM KCl, 0.9 mM MgCl2, 5.0 mM CaCl2, 5.6 mM D-glucose, 2.5 mM probenecid, 0.5% BSA, and 0.04% Pluronic P-127, pH 7.5) and incubated at 37° C. under 5% dioxide carbon atmosphere for one hour. The plate was washed with washing buffer (20 mM HEPES, 137 mM NaCl, 2.7 mM KCl, 0.9 mM MgCl2, 5.0 mM CaCl2, 5.6 mM D-glucose, 2.5 mM probenecid, pH 7.5), and each well was added with 20 μL of the washing buffer. The plate was placed in High-Throughput Screening System FLIPR 384 (Molecular Device Co.). Measurement of fluorescence intensity by […] was started, and 20 μL of DMSO solutions containing different concentrations of the test compound as prepared by dilution with dilution buffer (20 mM HEPES, 137 mM NaCl, 2.7 mM KCl, 0.9 mM MgCl2, 5.0 mM CaCl2, 5.6 mM D-glucose, 2.5 mM probenecid, 0.1% Pluronic F-127, pH 7.5) were dispensed to each well through the built-in automatic dispenser. Five minutes after, 150 nM ATP solution (25 μL) prepared by dilution with the dilution buffer was dispensed through the built-in automatic dispenser, and the measurement of fluorescence intensity was continued for 4 min. For each well, the specific maximum fluorescence intensity was calculated as the ratio of the maximum fluorescence intensity after addition of the ATP solution to the fluorescence intensity at the starting of the measurement. […] The specific maximum fluorescence intensify and IC50 were calculated using Spotfire (Science & Technology Systems. Inc.)

CYP1A2, sequence (P05177 whole entry): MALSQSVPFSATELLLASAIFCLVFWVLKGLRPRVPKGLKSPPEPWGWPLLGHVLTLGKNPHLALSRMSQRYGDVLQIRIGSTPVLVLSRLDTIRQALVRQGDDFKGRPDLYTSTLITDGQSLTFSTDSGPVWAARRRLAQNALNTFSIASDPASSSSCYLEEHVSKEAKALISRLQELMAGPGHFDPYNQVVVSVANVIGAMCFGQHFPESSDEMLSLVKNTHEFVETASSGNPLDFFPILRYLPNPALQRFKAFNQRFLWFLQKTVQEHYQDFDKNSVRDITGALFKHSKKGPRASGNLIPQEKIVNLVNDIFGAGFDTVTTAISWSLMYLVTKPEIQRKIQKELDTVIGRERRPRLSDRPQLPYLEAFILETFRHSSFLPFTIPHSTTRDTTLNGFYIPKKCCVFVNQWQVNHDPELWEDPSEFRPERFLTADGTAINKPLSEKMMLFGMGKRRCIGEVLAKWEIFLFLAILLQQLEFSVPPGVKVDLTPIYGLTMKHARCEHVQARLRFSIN

IC50 (CYP1A2): > 20000 nM
IC50 (CYP2C9): > 20000 nM
IC50 (CYP2C19): > 20000 nM
IC50 (CYP2D6): > 20000 nM
IC50 (CYP3A4): > 20000 nM
solubility at 18 h [1]: > 50 µM
Metabolism Stability [2]: 97%
Structure (SMILES): O=c1[nH]/c(=N\c2ccc(Oc3ncccc3F)cc2)n(Cc2ccc(Cl)cc2)c(=O)n1[C@H]1C[C@H](C(=O)O)C1 [Compound I-063]

Structure (SMILES): C[C@@H](Cn1c(=O)[nH]/c(=N\c2ccc(Oc3cc(F)ccn3)cc2)n(Cc2ccc(Cl)cc2)c1=O)C(=O)O [Compound I-070]
IC50 (human P2X3 receptor [3]): 37 nM
Metabolism Stability [2]: 103%

Structure (SMILES): COc1ccc(Oc2ccc(/N=c3\[nH]c(=O)n(C[C@H](C)C(=O)O)c(=O)n3Cc3ccc(Cl)cc3)cc2)nc1 [Compound I-079]
IC50 (human P2X3 receptor [3]): 37 nM

Structure (SMILES): [2H]C([2H])([2H])c1ccc(Cn2c(=O)n(C[C@H](C)C(=O)O)c(=O)[nH]/c2=N\c2ccc(Oc3ccc(F)cn3)cc2)cc1 [Compound I-130]
IC50 (human P2X3 receptor [4]): 6 nM

Structure (SMILES): COC(=O)[C@@H](C)Cn1c(=O)[nH]/c(=N\c2ccc(Oc3ccccn3)c(F)c2)n(C[C@H]2CC[C@H](C)CC2)c1=O [Compound I-253]
IC50 (human P2X3 receptor [4]): 9 nM

Structure (SMILES): C[C@@H](Cn1c(=O)[nH]/c(=N\c2ccc(Oc3ccnc(C#N)c3)cc2)n(Cc2ccc(Cl)cc2)c1=O)C(=O)O [Compound R-123]
IC50 (human P2X3 receptor [3]): 18 nM

Structure (SMILES): C[C@@H](C(=O)O)[C@H](C)n1c(=O)[nH]/c(=N\c2ccc(Oc3ccnc(Cl)c3)cc2)n(Cc2ccc(Cl)cc2)c1=O [Compound R-154]
IC50 (human P2X3 receptor [4]): 8 nM

Structure (SMILES): Cc1ccc(Cn2c(=O)n(C[C@H](C)C(=O)O)c(=O)[nH]/c2=N\c2ccc(Oc3ncc(C)s3)cc2)cc1 [Compound R-218]
IC50 (human P2X3 receptor [4]): 8 nM
